Laboratory results: publication PMC3797794, “Identification and Characterization of a Novel Trehalose Synthase Gene Derived from Saline-Alkali Soil Metagenomes” (PLoS ONE, 2013)

Tested on: T1, TreS (recombinant trehalose synthase)
T1 construct: pET-22b(+), E. coli BL21(DE3), Ni-NTA; His6 tag kept (C-terminal per Methods, N-terminal with 13 extra residues per Results)
Test: HPLC-RID of sugars, Lineweaver-Burk
Assay type: biochemical, uncultured bacterium
Details: pH 9.0, 45 °C, 30 min, 200 mM sodium phosphate

| Km | Structure (SMILES) |
| --- | --- |
| 64 ± 3.5 mM | OC[C@H]1O[C@H](O[C@H]2O[C@H](CO)[C@@H](O)[C@H](O)[C@H]2O)[C@H](O)[C@@H](O)[C@@H]1O [trehalose] |
| 9 ± 1.2 mM | OC[C@H]1O[C@H](O[C@H]2[C@H](O)[C@@H](O)C(O)O[C@@H]2CO)[C@H](O)[C@@H](O)[C@@H]1O (some centres unmarked) [maltose] |
